Test results from patent publication US9630961B2, “Arginine methyltransferase inhibitors and uses thereof” (Epizyme, Inc., priority 2013, dated 2017).

Biological target: T1, PRMT3 (Homo sapiens, UniProt O60678)
T1 construct: GST-tagged PRMT3; made in house; host or cells: E. coli BL21(DE3) Gold
Experiment: PRMT3 Biochemical Assay (3H-SAM Flashplate, peptide substrate)
Conditions: 30 min preincubation, room temperature
Text: S-adenosylmethionine (SAM), S-adenosylhomocysteine (SAH), bicine, Tween20, dimethylsulfoxide (DMSO), bovine skin gelatin (BSG), isopropyl-β-D-thiogalactopyranoside (IPTG), and Tris(2-carboxyethyl)phosphine hydrochloride solution (TCEP) were purchased from Sigma-Aldrich at the highest level of purity possible. ^3H-SAM was purchase from American Radiolabeled Chemicals with a specific activity of 80 Ci/mmol. 384-well streptavidin Flashplates were purchased from PerkinElmer.
Peptide containing the classic RMT substrate motif was synthesized with an N-terminal linker-affinity tag motif and a C-terminal amide cap by 21st Century Biochemicals. The peptide was purified by high-performance liquid chromatography (HPLC) to greater than 95% purity and confirmed by liquid chromatography mass spectrometry (LC-MS). The sequence was Biot-Ahx-[…]-amide (SEQ ID NO.:11).
Full-length human PRMT3 (NM_005788.3) isoform 1 transcript clone was amplified from an HEK 293 cDNA library and subcloned into pGEX-KG (GE Life Sciences). The resulting construct encodes an N-terminal GST tag and a thrombin cleavage sequence ([…] […] […] […]) (SEQ ID NO.: 12) fused directly to Cys 2 of PRMT3.
E. coli (BL21(DE3) Gold, Stratagene) made competent by the CaCl2 method were transformed with the PRMT3 construct and ampicillin selection. Protein over-expression was accomplished by growing the PRMT3 expressing E. coli clone and inducing expression with 0.3 mM IPTG at 16° C. The culture was grown for 12 hours, harvested by centrifugation, and stored at −80° C. for purification.
GST-tagged PRMT3 eluted with 25-400 mM phosphate in buffer C. Protein was concentrated and buffer was exchanged to 20 mM Tris, 150 mM NaCl, 5% glycerol, 5 mM β-mercaptoethanol, pH7.8 by ultrafiltration. The purity of recovered protein was 70%.
General Procedure for PRMT3 Enzyme Assays on Peptide Substrates.
The assays were all performed in a buffer consisting of 20 mM Bicine (pH=7.6), 1 mM TCEP, 0.005% BSG, and 0.002% Tween 20, prepared on the day of use. Compounds in 100% DMSO (1 ul) were spotted into a polypropylene 384-well V-bottom plates (Greiner) using a Platemate Plus outfitted with a 384-channel head (Thermo Scientific). DMSO (1 ul) was added to Columns 11, 12, 23, 24, rows A-H for the maximum signal control and 1 ul of SAH, a known product and inhibitor of PRMT3, was added to columns 11, 12, 23, 24, rows I-P for the minimum signal control. A cocktail (40 ul) containing the PRMT3 enzyme was added by Multidrop Combi (Thermo-Fisher). The compounds were allowed to incubate with PRMT3 for 30 min at room temperature, then a cocktail (10 ul) containing SAM and peptide was added to initiate the reaction (final volume=51 ul). The final concentrations of the components were as follows: PRMT3 was 0.5 nM, ^3H-SAM was 100 nM, non-radiolabeled SAM was 1.8 uM, peptide was 330 nM, SAH in the minimum signal control wells was 1 mM, and the DMSO concentration was 2%. The assays were stopped by the addition of potassium chloride (10 ul) to a final concentration of 100 mM. 50 ul of the reaction in the 384-well polypropylene plate was then transferred to a 384-well Flashplate and the biotinylated peptides were allowed to bind to the streptavidin surface for at least 1 hour before being washed once with 0.1% Tween20 in a Biotek ELx405 plate washer. The plates were then read in a PerkinElmer TopCount plate reader to measure the quantity of ^3H-labeled peptide bound to the Flashplate surface, measured as disintegrations per minute (dpm) or alternatively, referred to as counts per minute (cpm).
Where dpm=disintegrations per minute, cmpd=signal in assay well, and min and max are the respective minimum and maximum signal controls.
Where top and bottom are the normally allowed to float, but may be fixed at 100 or 0 respectively in a 3-parameter fit. The Hill Coefficient normally allowed to float but may also be fixed at 1 in a 3-parameter fit. […]

T1 sequence (O60678 with tags, fused parts or gaps): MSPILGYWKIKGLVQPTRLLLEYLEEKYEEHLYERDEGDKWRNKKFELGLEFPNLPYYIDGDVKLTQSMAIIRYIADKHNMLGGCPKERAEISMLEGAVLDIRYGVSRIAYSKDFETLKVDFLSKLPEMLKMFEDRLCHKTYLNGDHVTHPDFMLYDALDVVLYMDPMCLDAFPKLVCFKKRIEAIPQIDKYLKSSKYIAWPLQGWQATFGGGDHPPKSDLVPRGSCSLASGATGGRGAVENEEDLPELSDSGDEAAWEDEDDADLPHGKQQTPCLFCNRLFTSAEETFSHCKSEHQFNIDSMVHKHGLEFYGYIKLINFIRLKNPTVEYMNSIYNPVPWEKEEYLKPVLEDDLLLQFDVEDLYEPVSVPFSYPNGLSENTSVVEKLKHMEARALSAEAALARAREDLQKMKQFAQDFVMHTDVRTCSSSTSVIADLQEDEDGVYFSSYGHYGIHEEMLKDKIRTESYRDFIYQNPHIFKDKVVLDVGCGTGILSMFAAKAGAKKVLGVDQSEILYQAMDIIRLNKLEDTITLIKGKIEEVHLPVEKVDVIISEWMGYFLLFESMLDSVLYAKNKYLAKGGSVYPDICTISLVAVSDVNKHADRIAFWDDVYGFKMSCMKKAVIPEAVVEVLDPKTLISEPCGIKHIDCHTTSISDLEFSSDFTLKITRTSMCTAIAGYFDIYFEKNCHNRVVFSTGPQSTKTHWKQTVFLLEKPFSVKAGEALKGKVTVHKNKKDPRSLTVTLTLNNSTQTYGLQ

Row | Structure (SMILES) | IC50 [µM]
1 | CN(CCN)Cc1c[nH]nc1-c1ccsc1 [Compound 3] | 3.01 to 10
2 | CN(CCN)Cc1c[nH]nc1-c1cncnc1 [Compound 4] | ≥ 10
3 | CN(CCN)Cc1c[nH]nc1-c1cccs1 [Compound 5] | ≥ 10
4 | CN(CCN)Cc1c[nH]nc1-c1ccco1 [Compound 6] | 3.01 to 10
5 | CN(CCN)Cc1c[nH]nc1-c1ccoc1 [Compound 7] | ≥ 10
6 | CN(CCN)Cc1c[nH]nc1-c1cnn(C)c1 [Compound 8] | ≥ 10
7 | CN(CCN)Cc1c[nH]nc1-c1ccc2scnc2c1 [Compound 9] | 3.01 to 10
8 | Cc1noc(C)c1-c1n[nH]cc1CN(C)CCN [Compound 10] | ≥ 10
9 | COc1ncc(-c2n[nH]cc2CN(C)CCN)cn1 [Compound 11] | ≥ 10
10 | CN(CCN)Cc1c[nH]nc1-c1cn[nH]c1 [Compound 12] | ≥ 10
11 | CN(CCN)Cc1c[nH]nc1-c1cnc2[nH]ccc2c1 [Compound 13] | 1.01 to 3
12 | CN(CCN)Cc1c[nH]nc1-c1cc[nH]n1 [Compound 14] | ≥ 10
13 | CN(CCN)Cc1c[nH]nc1-c1ccnn1C [Compound 15] | ≥ 10
14 | CCn1cc(-c2n[nH]cc2CN(C)CCN)cn1 [Compound 16] | 3.01 to 10
15 | CN(CCN)Cc1c[nH]nc1-c1cnn(-c2ccccc2)c1 [Compound 17] | 3.01 to 10
16 | CN(CCN)Cc1c[nH]nc1-c1cnn(CCO)c1 [Compound 18] | ≥ 10
17 | CN(CCN)Cc1c[nH]nc1-c1ccc2cnn(C)c2c1 [Compound 19, N^1-methyl-N^1-((3-(1-methyl-1H-indazol-6-yl)-1H-pyrazol-4-yl)methyl)ethane-1,2-diamine] | 3.01 to 10
18 | CN(CCN)Cc1c[nH]nc1-c1ccc2ncnn2c1 [Compound 20] | 3.01 to 10
19 | CN(CCN)Cc1c[nH]nc1-c1ccc2nccn2c1 [Compound 21, N^1-((3-(imidazo[1,2-a]pyridin-6-yl)-1H-pyrazol-4-yl)methyl)-N^1-methylethane-1,2-diamine] | 3.01 to 10
20 | CC(C)n1cc(-c2n[nH]cc2CN(C)CCN)cn1 [Compound 22] | 3.01 to 10
21 | CC(C)Cn1cc(-c2n[nH]cc2CN(C)CCN)cn1 [Compound 23, N^1-((2′-isobutyl-3,4′-bi(1H-pyrazol)-4-yl)methyl)-N^1-methylethane-1,2-diamine] | 3.01 to 10
22 | CN(CCN)Cc1c[nH]nc1-c1cnn(Cc2ccccc2)c1 [Compound 24, N^1-((1′-benzyl-3,4′-bi(1H-pyrazol)-4-yl)methyl)-N^1-methylethane-1,2-diamine] | 3.01 to 10
